{"source": "patent US6667387B1", "about": "“HCV core peptides” (priority 1992, dated 2003)", "key": {"[1]": {"assay": "ELISA with seronegative / negative control sera (specificity)", "type": "binding, human", "summary_of_the_method": "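Specificity readout is OD at 450 nm (HRP goat anti-human Ig, TMB/H2O2, sulfuric acid stop), with ≥0.250 counted positive. Seronegative donor sera (typically 1:100, 1 h, 37° C) were applied to casein-blocked wells coated with peptide directly or via streptavidin capture of biotinylated peptide.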"}, "[2]": {"test_system": "antibodies in sera from HCV-seropositive donors", "assay": "ELISA with HCV antibody-positive sera (biotinylated peptides on streptavidin- or avidin-coated plates, unbiotinylated peptides coated directly)", "type": "binding, human", "summary_of_the_method": "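Peptides coated either directly at 2–5 or 3 μg/ml in carbonate buffer pH 9.6, or biotinylated at 1 μg/ml on streptavidin-coated wells (3 μg/ml). Plates casein-blocked, then human sera (1:100 or 1:20) incubated 1 h at 37° C. Bound antibody detected with HRP anti-human Ig/TMB, read as OD450.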"}}, "note": "Ends that are not written are not given here.", "data": [{"sequence": "ETWKKPDYEPPVVHGCPLPP", "values": [{"measurement": "optical density (450 nm)", "setting": "[1]; Table 4G, negative serum", "result": 0.001}, {"measurement": "optical density (450 nm)", "setting": "[1]; Table 5, sample 1747 (negative), peptide concentration 0.01 micrograms per milliliter, listed as Unbiotinylated HCV peptide XVIII", "result": 0.047}, {"measurement": "optical density (450 nm)", "setting": "[1]; Table 5, sample 1747 (negative), peptide concentration 0.03 micrograms per milliliter, listed as Unbiotinylated HCV peptide XVIII", "result": 0.044}, {"measurement": "optical density (450 nm)", "setting": "[1]; Table 5, sample 1747 (negative), peptide concentration 0.1 micrograms per milliliter, listed as Unbiotinylated HCV peptide XVIII", "result": 0.045}, {"measurement": "optical density (450 nm)", "setting": "[1]; Table 5, sample 1747 (negative), peptide concentration 0.3 micrograms per milliliter, listed as Unbiotinylated HCV peptide XVIII", "result": 0.046}, {"measurement": "optical density (450 nm)", "setting": "[1]; Table 5, sample 1747 (negative), peptide concentration 1.0 micrograms per milliliter, listed as Unbiotinylated HCV peptide XVIII", "result": 0.045}, {"measurement": "optical density (450 nm)", "setting": "[1]; Table 5, sample 1747 (negative), peptide concentration 3.0 micrograms per milliliter, listed as Unbiotinylated HCV peptide XVIII", "result": 0.048}, {"measurement": "optical density (450 nm)", "setting": "[1]; Table 5, sample 1781 (negative), peptide concentration 0.01 micrograms per milliliter, listed as Unbiotinylated HCV peptide XVIII", "result": 0.053}, {"measurement": "optical density (450 nm)", "setting": "[1]; Table 5, sample 1781 (negative), peptide concentration 0.03 micrograms per milliliter", "result": 0.051}, {"measurement": "optical density (450 nm)", "setting": "[1]; Table 5, sample 1781 (negative), peptide concentration 0.1 micrograms per milliliter, listed as Unbiotinylated HCV peptide XVIII", "result": 0.051}, {"measurement": "optical density (450 nm)", "setting": "[1]; Table 5, sample 1781 (negative), peptide concentration 0.3 micrograms per milliliter, listed as Unbiotinylated HCV peptide XVIII", "result": 0.051}, {"measurement": "optical density (450 nm)", "setting": "[1]; Table 5, sample 1781 (negative), peptide concentration 1.0 micrograms per milliliter, listed as Unbiotinylated HCV peptide XVIII", "result": 0.054}, {"measurement": "optical density (450 nm)", "setting": "[1]; Table 5, sample 1781 (negative), peptide concentration 3.0 micrograms per milliliter, listed as Unbiotinylated HCV peptide XVIII", "result": 0.055}, {"measurement": "optical density (450 nm)", "setting": "[2]; Table 4G, serum 1, 20-fold dilution", "result": 2.523}, {"measurement": "optical density (450 nm)", "setting": "[2]; Table 4G, serum 33, 20-fold dilution", "result": 1.463}, {"measurement": "optical density (450 nm)", "setting": "[2]; Table 4G, serum 39, 20-fold dilution", "result": 0.068}, {"measurement": "optical density (450 nm)", "setting": "[2]; Table 4G, serum 47, 20-fold dilution", "result": 2.117}, {"measurement": "optical density (450 nm)", "setting": "[2]; Table 4G, serum 79, 20-fold dilution", "result": 1.739}, {"measurement": "optical density (450 nm)", "setting": "[2]; Table 4G, serum 83, 20-fold dilution", "result": 1.121}, {"measurement": "optical density (450 nm)", "setting": "[2]; Table 4G, serum 88, 20-fold dilution", "result": 0.972}, {"measurement": "optical density (450 nm)", "setting": "[2]; Table 4G, serum 89, 20-fold dilution", "result": 2.079}, {"measurement": "optical density (450 nm)", "setting": "[2]; Table 4G, serum 91, 20-fold dilution", "result": 2.202}, {"measurement": "optical density (450 nm)", "setting": "[2]; Table 4G, serum 99, 20-fold dilution", "result": 1.253}, {"measurement": "optical density (450 nm)", "setting": "[2]; Table 4G, serum 104, 20-fold dilution", "result": 1.864}, {"measurement": "optical density (450 nm)", "setting": "[2]; Table 4G, serum 105, 20-fold dilution", "result": 1.522}, {"measurement": "optical density (450 nm)", "setting": "[2]; Table 4G, serum 110, 20-fold dilution", "result": 1.981}, {"measurement": "optical density (450 nm)", "setting": "[2]; Table 4G, serum 111, 20-fold dilution", "result": 1.363}, {"measurement": "optical density (450 nm)", "setting": "[2]; Table 4G, serum 112, 20-fold dilution", "result": 1.172}, {"measurement": "optical density (450 nm)", "setting": "[2]; Table 4G, serum 116, 20-fold dilution", "result": 1.534}, {"measurement": "optical density (450 nm)", "setting": "[2]; Table 4G, serum 120, 20-fold dilution", "result": 1.599}, {"measurement": "optical density (450 nm)", "setting": "[2]; Table 5, sample 8242 (positive), peptide concentration 0.01 micrograms per milliliter, listed as Unbiotinylated HCV peptide XVIII", "result": 0.048}, {"measurement": "optical density (450 nm)", "setting": "[2]; Table 5, sample 8242 (positive), peptide concentration 0.03 micrograms per milliliter, listed as Unbiotinylated HCV peptide XVIII", "result": 0.049}, {"measurement": "optical density (450 nm)", "setting": "[2]; Table 5, sample 8242 (positive), peptide concentration 0.1 micrograms per milliliter, listed as Unbiotinylated HCV peptide XVIII", "result": 0.047}, {"measurement": "optical density (450 nm)", "setting": "[2]; Table 5, sample 8242 (positive), peptide concentration 0.3 micrograms per milliliter, listed as Unbiotinylated HCV peptide XVIII", "result": 0.048}, {"measurement": "optical density (450 nm)", "setting": "[2]; Table 5, sample 8242 (positive), peptide concentration 1.0 micrograms per milliliter, listed as Unbiotinylated HCV peptide XVIII", "result": 0.049}, {"measurement": "optical density (450 nm)", "setting": "[2]; Table 5, sample 8242 (positive), peptide concentration 3.0 micrograms per milliliter, listed as Unbiotinylated HCV peptide XVIII", "result": 0.053}, {"measurement": "optical density (450 nm)", "setting": "[2]; Table 5, sample 8243 (positive), peptide concentration 0.01 micrograms per milliliter, listed as Unbiotinylated HCV peptide XVIII", "result": 0.053}, {"measurement": "optical density (450 nm)", "setting": "[2]; Table 5, sample 8243 (positive), peptide concentration 0.03 micrograms per milliliter, listed as Unbiotinylated HCV peptide XVIII", "result": 0.053}, {"measurement": "optical density (450 nm)", "setting": "[2]; Table 5, sample 8243 (positive), peptide concentration 0.1 micrograms per milliliter, listed as Unbiotinylated HCV peptide XVIII", "result": 0.051}, {"measurement": "optical density (450 nm)", "setting": "[2]; Table 5, sample 8243 (positive), peptide concentration 0.3 micrograms per milliliter, listed as Unbiotinylated HCV peptide XVIII", "result": 0.054}, {"measurement": "optical density (450 nm)", "setting": "[2]; Table 5, sample 8243 (positive), peptide concentration 1.0 micrograms per milliliter, listed as Unbiotinylated HCV peptide XVIII", "result": 0.053}, {"measurement": "optical density (450 nm)", "setting": "[2]; Table 5, sample 8243 (positive), peptide concentration 3.0 micrograms per milliliter, listed as Unbiotinylated HCV peptide XVIII", "result": 0.057}, {"measurement": "optical density (450 nm)", "setting": "[2]; Table 5, sample 8318 (positive), peptide concentration 0.01 micrograms per milliliter, listed as Unbiotinylated HCV peptide XVIII", "result": 0.048}, {"measurement": "optical density (450 nm)", "setting": "[2]; Table 5, sample 8318 (positive), peptide concentration 0.03 micrograms per milliliter, listed as Unbiotinylated HCV peptide XVIII", "result": 0.047}, {"measurement": "optical density (450 nm)", "setting": "[2]; Table 5, sample 8318 (positive), peptide concentration 0.1 micrograms per milliliter, listed as Unbiotinylated HCV peptide XVIII", "result": 0.047}, {"measurement": "optical density (450 nm)", "setting": "[2]; Table 5, sample 8318 (positive), peptide concentration 0.3 micrograms per milliliter, listed as Unbiotinylated HCV peptide XVIII", "result": 0.047}, {"measurement": "optical density (450 nm)", "setting": "[2]; Table 5, sample 8318 (positive), peptide concentration 1.0 micrograms per milliliter, listed as Unbiotinylated HCV peptide XVIII", "result": 0.045}, {"measurement": "optical density (450 nm)", "setting": "[2]; Table 5, sample 8318 (positive), peptide concentration 3.0 micrograms per milliliter, listed as Unbiotinylated HCV peptide XVIII", "result": 0.051}, {"measurement": "optical density (450 nm)", "setting": "[2]; Table 5, sample 8326 (positive), peptide concentration 0.01 micrograms per milliliter, listed as Unbiotinylated HCV peptide XVIII", "result": 0.051}, {"measurement": "optical density (450 nm)", "setting": "[2]; Table 5, sample 8326 (positive), peptide concentration 0.03 micrograms per milliliter, listed as Unbiotinylated HCV peptide XVIII", "result": 0.051}, {"measurement": "optical density (450 nm)", "setting": "[2]; Table 5, sample 8326 (positive), peptide concentration 0.1 micrograms per milliliter, listed as Unbiotinylated HCV peptide XVIII", "result": 0.049}, {"measurement": "optical density (450 nm)", "setting": "[2]; Table 5, sample 8326 (positive), peptide concentration 0.3 micrograms per milliliter, listed as Unbiotinylated HCV peptide XVIII", "result": 0.053}, {"measurement": "optical density (450 nm)", "setting": "[2]; Table 5, sample 8326 (positive), peptide concentration 1.0 micrograms per milliliter, listed as Unbiotinylated HCV peptide XVIII", "result": 0.053}, {"measurement": "optical density (450 nm)", "setting": "[2]; Table 5, sample 8326 (positive), peptide concentration 3.0 micrograms per milliliter, listed as Unbiotinylated HCV peptide XVIII", "result": 0.052}]}]}
